Test: gradient 5% acetonitrile 3 min, to 50% in 2 min, to 85% in 15 min, held 3 min, 100 µL/min
Settings: column: Zorbax Extend-C18 2.1 x 50 mm; eluents: water / acetonitrile, 0.1% formic acid
Procedure, shortened: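 The system's dead and dwell volumes were 40 μL and 900 μL, with a Zorbax Extend-C18 column (2.1 × 50 mm, 1.8 μm) run at 100 μL/min in water and acetonitrile containing 0.1% formic acid each. Pure standards were analyzed in mixtures of ~100 molecules by HPLC–quadrupole time-of-flight mass spectrometry in positive and negative ionization mode. Retention time was assigned from computationally picked, manually inspected adduct peaks.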

| Structure (SMILES) | RP-LC retention time |
| --- | --- |
| O=C(Nc1ccc(F)cc1F)C1CCCN(S(=O)(=O)c2c[nH]c(C(=O)N3CCCC3)c2)C1 (stereo not given) | 792 s |
| CC(NC(=O)Cc1c(F)cccc1Cl)C(=O)N1CCN(c2ccccn2)CC1 (stereo not given) | 599 s |
| CC(C)(C)c1ccc(C(=O)CCCN2CCC(OC(c3ccccc3)c3ccccc3)CC2)cc1 | 1190 s |
| CCOC(=O)c1[nH]c(C)c(C(=O)C(C)N(CC(C)C)C(=O)c2ccc(Cl)cc2)c1C (stereo not given) | 1080 s |
| O=C(NC1CCCCC1)C1CCCN(C(=O)c2ccc(F)c(F)c2)C1 (stereo not given) | 825 s |
| Cc1ccn2c(NC(=O)c3cccc(C(F)(F)F)c3)c(-c3ccc(F)cc3)nc2c1 | 752 s |
| Cc1ccc(-c2nc(Nc3ccccc3Cl)sc2CC(=O)O)cc1 | 1040 s |
| Cc1c2ccncc2c(C)c2c1sc1ccccc12 | 714 s |
| Cc1oc(C2CCN(S(=O)(=O)c3ccccc3F)CC2)nc1C(=O)N(C)C | 781 s |
| COc1ccc2c(c1)C1(CCN(C(=O)c3ccccc3)C1)C(=O)N2 (stereo not given) | 692 s |
| Nc1c(C(=O)NCc2ccc3c(c2)OCO3)nsc1C(=O)N1CCN(c2ccccn2)CC1 | 663 s |
| CCn1ccc2c(cc(C(=O)Nc3ccc(C)c(Cl)c3)n2C)c1=O | 907 s |
| Cn1nc(CNC(=O)c2ccsc2)c2ccccc21 | 735 s |
| CCCC(=O)N1CCN(c2ccc(=O)n(-c3ccc(Cl)cc3)n2)CC1 | 778 s |
| O=C(Nc1cccc(OC(F)(F)F)c1)C1CCCN(c2nnc3ccccn23)C1 (stereo not given) | 784 s |
| Cn1ncc(N2CCC(C(=O)Nc3ccccc3)C2)cc1=O (stereo not given) | 648 s |
| CCCC(=O)Nc1nnc(SCc2ccc(Br)cc2)s1 | 934 s |
| Cc1nnc(SCC(=O)NCCc2ccccc2)s1 | 650 s |
| Fc1ccccc1-c1nc2ccc(Cl)cn2c1Nc1ccc(Cl)cc1 | 909 s |
| CC(C)c1ccc(NC(=O)CC2=C3CCCCC3N(C(C)C)C2=O)cc1 (stereo not given) | 1070 s |
| CCCn1c(-c2cccc(C(=O)NCc3ccccc3C(F)(F)F)c2)nc2cccnc21 | 911 s |

| Structure (SMILES) | RP-LC retention time |
| --- | --- |
| Cc1ccc(S(=O)(=O)Nc2ccc3c(c2)CCC(=O)N3C)cc1Cl | 1000 s |
| CN1Cc2sccc2C(c2ccc(O)c(O)c2)C1 (stereo not given) | 628 s |
| Cc1ccc2nc(-c3ccccc3F)c(Nc3ccc(Cl)cc3)n2c1 | 754 s |
| Cc1nnc(-c2nnc(NCc3ccccc3)c3ccccc23)o1 | 776 s |
| c1ccc2c(CCNc3ncnc4nc[nH]c34)c[nH]c2c1 | 577 s |
| O=C(Cn1cnc2nc(N3CCCC(C(=O)NC4CC4)C3)sc2c1=O)Nc1ccccc1F (stereo not given) | 668 s |
| Cc1noc(C2CN(C(=O)c3ccc(F)c(F)c3)CC23CCOCC3)n1 (stereo not given) | 710 s |
| Cc1sc(NC(=O)C2CCN(S(=O)(=O)c3cccs3)CC2)c(C(N)=O)c1C | 769 s |
| CCCCn1c(CN2CCOCC2)nc2cc(NC(=O)C(C)C)ccc21 | 648 s |
| CCOc1ccccc1NC(=O)C1CC(=O)N(c2n[nH]c3ccccc23)C1 (stereo not given) | 767 s |
| CN(CC1CCOC1)C(=O)Cc1ccc(Cl)cc1 (stereo not given) | 741 s |
| CC(=O)Nc1nc(-c2cccnc2)cs1 | 504 s |
| CCS(=O)(=O)c1nc2ccc(NS(=O)(=O)c3cc(OC)ccc3OC)cc2s1 | 833 s |
| COC(=O)c1c(C)[nH]c(C(=O)N2CCC(CC(=O)NCCCN3CCOCC3)CC2)c1C | 575 s |
| CN(C)C(=O)c1cn(-c2ccc(-c3nc(C(C)(C)C)no3)cn2)cn1 | 808 s |
| COC(=O)c1cccc(Nc2c(-c3ccccc3)nc3cnccn23)c1 | 834 s |
| COCCCNCc1c(C(=O)O)c(C)n(Cc2ccc(Cl)cc2)c1C | 672 s |
| CN1CCN(C(=O)C(=O)Nc2c3c(nn2-c2cccc(Cl)c2)CSC3)CC1 | 571 s |
| CC(CCc1ccccc1)NC(=O)c1ccc(-n2cccn2)nc1 (stereo not given) | 858 s |
| COC(=O)c1c(C)[nH]c(C(=O)N2CCC(CC(=O)N3CCCC3)CC2)c1C | 628 s |
| CC(=O)N1CCc2nn(C)c(=O)n2CC1 | 543 s |

Other lines, results leading:

| RP-LC retention time | Structure (SMILES) |
| --- | --- |
| 1290 s | Cc1ccc(-c2nc(-c3ccc(-c4noc(CNS(=O)(=O)c5ccccc5)n4)cc3)cs2)s1 |
| 705 s | O=c1c2cc(-c3ccccc3)nn2ccn1Cc1noc(CN2CCCCCCC2)n1 |
| 940 s | CN(C)S(=O)(=O)c1ccc(-c2nnc(C(=O)NCc3ccc(C(F)(F)F)cc3)o2)cc1 |
| 792 s | CCCOc1ccc(CNC(=O)C2CCc3nc(N4CCOCC4)ncc3C2)cc1 (stereo not given) |
| 954 s | C=CCN1C(=O)COc2ccc(-c3csc(NC(=O)CC(C)C)n3)cc21 |
| 972 s | Cc1c(S(=O)(=O)NCc2ccccc2)c(C)n(C)c1-c1nnc(C2CCC2)o1 |
| 932 s | CN(C)S(=O)(=O)c1ccc2c(c1)N(CC(=O)NCc1ccc(Cl)cc1)C(=O)C1CCCCN21 (stereo not given) |
| 892 s | CCOc1ccc(C(=O)N2CCCC(c3nnc(-c4ccccc4)o3)C2)cc1 (stereo not given) |
| 697 s | Cc1ccc(CNC(=O)CSc2nc3nc(C)cc(C)n3n2)cc1 |
| 984 s | CCn1cc(-c2nc(CC(=O)Nc3ccccc3OC)cs2)c2cccnc21 |
| 702 s | Cc1ccc(-c2ccc(-n3nc(C)c(S(=O)(=O)NCCN4CCOCC4)c3C)nn2)cc1C |
| 1000 s | O=C(Nc1ccc(Cl)cc1)c1cccn1Cc1noc(C2CC2)n1 |
| 941 s | CCc1ccc(C(=O)N2CCC(COc3ccc(C(=O)NC(C)C)cc3)CC2)cc1 |
| 771 s | CCCN1C(=O)COc2cc(-c3noc(C(=O)NCCc4ccc(S(N)(=O)=O)cc4)n3)ccc21 |
| 881 s | O=C(c1ccc(Br)o1)N1CCC(Cc2nnc(-c3ccccc3)o2)CC1 |
| 840 s | CCOc1ccccc1NS(=O)(=O)c1cc(-c2c(CC)noc2NC(C)=O)ccc1OC |
| 617 s | CC(=O)N1CCCC1c1nc(C2CN(C(=O)NCc3ccco3)C2)no1 (stereo not given) |
| 999 s | COc1cccc(-c2ccc(=O)n(CCc3nc(-c4ccc(C)cc4)no3)n2)c1 |
| 1090 s | Cc1cccc(Cn2ccc3ccn(CC(=O)N4CCOc5ccc(C)cc54)c(=O)c32)c1 |
| 683 s | CCOc1ccc(-n2ccn3c(CC(C)CC(=O)NCC(C)C)nnc3c2=O)cc1 (stereo not given) |
| 755 s | COc1ccc(NC(=O)Cn2nc3nc(N4CCCCC4C)ccn3c2=O)cc1 (stereo not given) |
| 569 s | O=C(NCCCN1CCCCC1)c1cc2n(n1)CCCN(Cc1ccccc1)C2=O |
| 697 s | COc1ccc(C(C)NC(=O)Cn2c(=O)nc(-c3ccccc3)c3ccccc32)cc1OC (stereo not given) |
| 946 s | CCCc1nc(-c2c(C)cc(C)nc2NC(=O)COc2ccccc2)no1 |

| RP-LC retention time | Structure (SMILES) |
| --- | --- |
| 662 s | Cc1ccc(S(=O)(=O)Nc2ccc(-c3cn4ccccc4n3)cc2)cc1[N+](=O)[O-] |
| 705 s | Cc1cc(C)n2nc(SCC(=O)NCc3ccccc3)nc2n1 |
| 685 s | O=C(c1cccc(F)c1)N1CCC[C@H]1c1nc(-c2ccccc2)n[nH]1 |
| 682 s | COc1cccc(-n2c(N3CCC(C(=O)NC4CC4)CC3)nc3ccsc3c2=O)c1 |
| 949 s | Cc1cc(-c2nn3c(C4CCCCC4)nnc3s2)c2ccccc2n1 |
| 942 s | Cc1ccc(C2=NN3C(C2)c2ccccc2OC32CCCC2)o1 (stereo not given) |
| 1070 s | COCCn1cc2c3c(cccc31)CN(C(=O)Nc1cccc(Cl)c1C)CC2 |
| 1020 s | Cc1ccc(-c2noc(CN3N=NC4C(=O)N(c5ccc(F)cc5)C(=O)C43)n2)cc1 (stereo not given) |
| 651 s | CN(C)CCn1nnc2cc(-c3noc(-c4ccccc4)n3)ccc21 |
| 942 s | Cc1ccc2nc3c(C(=O)NC4CC4)cccn3c(=O)c2c1 |
| 614 s | Cc1ccc(CN2CCN(CC(=O)NC3CCN(Cc4ccccc4)CC3)C(=O)C2=O)cc1 |
| 822 s | COc1ccc(C2(C(=O)N3CCCC(c4nc(C5CCOCC5)no4)C3)CC2)cc1 (stereo not given) |
| 1130 s | Cc1cc(C(=O)Nc2ccc(F)cc2F)nc2cc(-c3ccco3)nn12 |
| 670 s | CCCOc1ccc(N2CCN(C(=O)c3cc(Cl)ccc3OC)CC2)nn1 |
| 606 s | Cc1ccc(CN(C)Cc2cc(=O)n3ccccc3n2)cc1 |
| 824 s | O=C(c1ccccc1Br)N1CCN(c2cc(-c3ccc(F)cc3)[nH]n2)CC1 |
| 871 s | CCc1nc(CN2C(=O)COc3cc(S(=O)(=O)N4CCN(c5ncccn5)CC4)c(C)cc32)no1 |
| 859 s | COc1ccc(NC(=O)c2nnc(CSCC(=O)NCCc3c[nH]c4ccccc34)s2)cc1 |
| 671 s | COc1ccc(-c2cc3c(=O)n(Cc4noc(CN(C)C5CCCCC5)n4)ccn3n2)cc1 |
| 1010 s | CC(C)Oc1ccc(-c2noc(-c3nn(-c4cccc(F)c4)ccc3=O)n2)cc1 |
| 963 s | CCS(=O)(=O)N1CCCC(Cn2cc(COc3ccc4c(c3)CCC4)nn2)C1 (stereo not given) |
| 666 s | CCOC(=O)C1=C(C)N(CC(=O)NC2CCCC2)c2ncnn2C1c1ccccc1 (stereo not given) |
| 757 s | CCOc1ccc(NC(=O)c2cc3c(=O)n(CC)ccc3n2C)cc1 |
| 773 s | COc1ccc(S(=O)(=O)N2CC3CN(C(=O)c4ccc(C#N)cc4)CC(C2)O3)cc1 |
